In PubChem BioAssay (NCI) one finds TGI and GI50 data, which are given here for 10 compounds.

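These data come from cells grown in 96-well plates and exposed to compound for 48 hours at five concentrations. At the GI50, growth is halved. Definition used: TGI = concentration required for complete inhibition of growth.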 A value given as a limit tells only on which side of the number the result lay.

What all share (assay): growth of human tumour cells (NCI), 48 h
Experiment [1] relates to KM12 colon.
For experiment [2], the system named is MOLT-4 leukemia.
In experiment [3] the test system is A549 NSCLC.
Experiment [4] deals with SF-268 CNS.
Experiment [5] relates to NCI-H23 lung.
Experiment [6] deals with NCI-H522 lung.
Experiment [7] deals with EKVX NSCLC.
Experiment [8] concerns NCI-H226 lung.
Experiment [9] has as its system SK-OV-3 ovarian.
Experiment [10] concerns HOP-92 NSCLC.

As for `C/C(=N\NS(=O)(=O)c1ccc(C)cc1)c1cc2ccccc2n1C`, the TGI in [1], in experiment [2], in experiment [3], in [4], in [5] and in experiment [6] was above 100 µM throughout. The same compound yielded a TGI in experiment [7] above 100 µM.
As to `CC1SC2(CCC(c3ccccc3)CC2)N(NC(=O)c2[nH]c3ccc(F)cc3c2-c2ccccc2)C1=O` (stereo not drawn), the GI50 was 2.32 µM in [1]; 11 µM in [8]; 54.3 µM in experiment [9]; 7.72 µM in experiment [3]; 21.2 µM in [4]; 4.4 µM in [5]. Also, the values for the GI50 in experiment [6], in experiment [10] and in experiment [7] were 7.21 µM, 1.33 µM and 12.4 µM, respectively. The TGI is 6.91 µM in experiment [1]; 29.8 µM in experiment [8]; above 100 µM in experiment [9]; 46.8 µM in experiment [3]; above 100 µM in experiment [4]; 19 µM in [5]. For the same compound, the results for the TGI in [6], in experiment [10] and in [7] were 24.6 µM, 3.65 µM and 54.2 µM, respectively.
As to `Cc1cccc2nc3cccc(C(=O)NCCNCCNCCNC(=O)c4cccc5nc6cccc(C)c6nc45)c3nc12`, the GI50 is below 0.01 µM in [1]; below 0.0128 µM in [8]; below 0.01 µM in [2]; 0.0933 µM in experiment [9]; below 0.01 µM in [4]; below 0.012 µM in [5]. In addition, the GI50 in [6] is below 0.01 µM; in experiment [10], below 0.0317 µM; in experiment [7], 0.291 µM. In addition, the TGI in [1] was found to be 3.42 µM; in [8], 0.274 µM; in experiment [2], 14.7 µM; in [9], 12.8 µM; in experiment [4], 1.7 µM; in experiment [5], 0.938 µM. The TGI in [6] is 0.159 µM; in experiment [10], 0.519 µM; in experiment [7], 16.3 µM.
For `O=C1C(=O)c2ccccc2C(O)=C1CCCc1ccc(C2CCCC2)cc1`, the GI50 in [1] is 5.1 µM; in experiment [8], 3.77 µM; in experiment [2] it was 3.72 µM; in experiment [9], 12.5 µM; in experiment [3], 3.36 µM; in [4], 5.1 µM. The GI50 in experiment [5] was 5.19 µM; in [6] it was 5.01 µM; in experiment [7], 11.7 µM. Besides, the TGI in [1] amounted to 25.1 µM; in [8] it was 20.5 µM; in experiment [2], 12.3 µM; in [9] it was 56.9 µM; in [3], 32.9 µM; in [4], 51.5 µM. For the same compound, the TGI stood at 22.6 µM in experiment [5], 25.9 µM in experiment [6] and 64.7 µM in experiment [7].
As to `O=S1(=O)NC2CCC3NS(=O)(=O)NC4CCC(N1)N4S(=O)(=O)N23` (stereo not drawn), the TGI in experiment [1], in experiment [8], in [9], in experiment [3], in [4] and in [5] was above 100 µM throughout. The TGI in [6], in experiment [10] and in experiment [7] was above 100 µM throughout.
`O=C(CC1(O)C(=O)Nc2ccccc21)c1ccc(F)cc1` (stereo not drawn): the TGI in experiment [8], in experiment [2], in experiment [9], in experiment [3], in experiment [4] and in experiment [5] was above 100 µM in each case. The TGI in [6], in experiment [10] and in experiment [7] was above 100 µM throughout.
Regarding `C[C@]12CC[C@H]3[C@@H](CCC4=CC(=O)CC[C@@]43C)[C@@H]1CC[C@@H]2C(=O)COS(=O)(=O)c1ccc(Br)cc1`, the TGI in experiment [1] stood at 44.8 µM; in experiment [8], 39.3 µM; in [9], 38.1 µM; in [3], 44.6 µM; in [4], 34.6 µM; in experiment [5], 8.62 µM. Besides, the TGI in [6] came to 2.97 µM; in experiment [10] it was 18.3 µM; in [7] it was 21.3 µM.
For `COC(=O)C(CC(C)=O)CS(=O)(=O)CC(=O)C(=O)Nc1cccc([N+](=O)[O-])c1` (stereo not drawn), the TGI in experiment [1], in [8], in [9], in experiment [3], in [4] and in [5] was above 100 µM throughout. Besides, the TGI in experiment [6], in experiment [10] and in experiment [7] was above 100 µM in each case.
Take `CNc1cc2nc3cc(NC)c(C)cc3cc2cc1C`: the GI50 in experiment [1] is 0.792 µM; in experiment [8], 0.81 µM; in experiment [2], 0.514 µM; in [9], 0.695 µM; in experiment [4], 0.687 µM; in experiment [5], 0.624 µM. Also, the GI50 was 0.552 µM in experiment [6], 1.76 µM in [10] and 1.04 µM in [7]. Moreover, the TGI in experiment [1] was 2.28 µM; in experiment [8] it was 18.8 µM; in [2], above 100 µM; in experiment [9], 12.8 µM; in experiment [4] it was 10.9 µM; in [5], 3.11 µM. In addition, the TGI was found to be 5.06 µM in experiment [6], 19.1 µM in experiment [10] and 8.48 µM in [7].
Regarding `CCCCCc1cc[n+](CC(=O)c2ccc([N+](=O)[O-])cc2)cc1`, the GI50 in experiment [1] is 3.69 µM; in experiment [8], 6.73 µM; in experiment [9], 13.1 µM; in experiment [3], 4.39 µM; in experiment [4], 19.4 µM; in experiment [5], 2.89 µM. In addition, the GI50 is 1.8 µM in experiment [6], 2.2 µM in experiment [10] and 3.5 µM in [7]. Besides, the TGI was 14.1 µM in experiment [1]; 24.4 µM in experiment [8]; 46.3 µM in experiment [9]; 15 µM in experiment [3]; above 100 µM in [4]; 11.9 µM in experiment [5]. Further, the TGI in experiment [6] was 8.53 µM; in [10], 9.84 µM; in experiment [7] it was 17.5 µM.
